Among the data in US9409884B2 (Rigel Pharmaceuticals, Inc., priority 2012, dated 2016) are EC50 values, retold here.

Where only a bound is given, the exact number is not on record here.

The target in the first assay is AMPK. As to the kind of experiment: AMPK activation, enzyme-linked immunosorbent assay. It is filed as biochemical. To be noted: Table 8, compounds of Table 1. The method, boiled down: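 Read-out: ELISA, used to detect compound-driven activation of AMPK.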
For the compound `CC(C)(C)OC(=O)N1CCC(NC(=O)c2cc(OC3CCN(c4ccc(C(F)(F)F)cc4)CC3)ccn2)CC1` [Compound 1-12, tert-butyl 4-(4-(1-(4-(trifluoromethyl)phenyl)piperidin-4-yloxy)picolinamido) piperidine-1-carboxylate], the EC50 (commonly the concentration that produces a half-maximal response) fell in the range of 500 to 1000 nM.

With `CC(C)(C)OC(=O)N1CC[C@@H](NC(=O)c2cc3cc(OC4CCN(c5ccc(C(F)(F)F)cc5)CC4)ccc3o2)C1` [Compound 1-120, (R)-tert-butyl 3-(5-(1-(4-(trifluoromethyl)phenyl)piperidin-4-yloxy)benzofuran-2-carboxamido) pyrrolidine-1-carboxylate], the EC50 lay within 1000 to 5000 nM.

As for `O=C(NC1CCNCC1)c1ccnc(OC2CCN(c3ccc(C(F)(F)F)cc3)CC2)c1` [Compound 1-19, N-(piperidin-4-yl)-2-(1-(4-(trifluoromethyl)phenyl)piperidin-4-yloxy) isonicotinamide], the EC50 fell in the range of 1000 to 5000 nM.

As for `O=C(N[C@@H]1CCNC1)c1ccc(OC2CCN(c3ccc(C(F)(F)F)cc3)CC2)cn1` [Compound 1-24, (R)-N-(pyrrolidin-3-yl)-5-(1-(4-(trifluoromethyl)phenyl)piperidin-4-yloxy) picolinamide], the EC50 is 5000 to 10000 nM.

On to `CN(C(=O)c1cc2cc(OC3CCN(c4ccc(C(F)(F)F)cc4)CC3)ccc2o1)C1CCN(Cc2ccc(C(F)(F)F)cc2)CC1` [Compound 1-119, N-methyl-N-(1-(4-(trifluoromethyl)benzyl)piperidin-4-yl)-5-(1-(4-(trifluoromethyl)phenyl)piperidin-4-yloxy)benzofuran-2-carboxamide], for which the EC50 was below 100 nM.

Staying with this assay, now noted: Table 9, compounds of Table 2.
For the compound `N#Cc1ccc(CN2CCC(NC(=O)c3ccc4[nH]c5c(c4c3)CN(S(=O)(=O)c3ccc(C(F)(F)F)cc3)CC5)CC2)cc1` [Compound 2-24, N-(1-(4-cyanobenzyl)piperidin-4-yl)-2-(4-(trifluoromethyl)phenylsulfonyl)-2,3,4,5-tetrahydro-1H-pyrido[4,3-b]indole-8-carboxamide], the EC50 lay in the range of 1000 to 5000 nM.

`O=C(NC1CCN(S(=O)(=O)c2ccc(Cl)cc2)CC1)c1ccc2[nH]c3c(c2c1)CN(Cc1ccc(C(F)(F)F)cc1)CC3` [Compound 2-32, N-(1-(4-chlorophenylsulfonyl)piperidin-4-yl)-2-(4-(trifluoromethyl)benzyl)-2,3,4,5-tetrahydro-1H-pyrido[4,3-b]indole-8-carboxamide] returned an EC50 of 1000 to 5000 nM.

Staying with this assay, now noted: Table 10, compounds of Table 3.
As to `O=C(c1nc2ccc(OC3CCN(c4ccc(C(F)(F)F)cc4)CC3)cc2o1)N1CC2CC1CN2Cc1ccncc1` (stereo not drawn) [Compound 3-8, (5-(pyridin-4-ylmethyl)-2,5-diazabicyclo[2.2.1]heptan-2-yl)(6-(1-(4-(trifluoromethyl)phenyl)piperidin-4-yloxy)benzo[d]oxazol-2-yl)methanone], the EC50 lay in the range of 100 to 1000 nM.

Turning to `N#Cc1ccc(CN2CCC(NC(=O)c3nc4ccc(OC5CCN(c6ccc(C(F)(F)F)cc6)CC5)cc4o3)CC2)cc1` [Compound 3-2, N-(1-(4-cyanobenzyl)piperidin-4-yl)-6-(1-(4-(trifluoromethyl)phenyl)piperidin-4-yloxy)benzo[d]oxazole-2-carboxamide], the EC50 was below 100 nM.

Still in this assay, the particulars now being: Table 11, compounds of Table 4.
With `O=C(N[C@H]1CCN(Cc2ccncc2)C1)c1ccc(C(=O)N2CCN(c3ccc(Cl)cc3)CC2)cn1` [Compound 4-5, (S)-5-(4-(4-chlorophenyl)piperazine-1-carbonyl)-N-(1-(pyridin-4-ylmethyl)pyrrolidin-3-yl)picolinamide], the EC50 was in the range of 1000 to 5000 nM.

The assay is the same for the next values; noted with them: Table 12, compounds of Table 5.
In turn, `N#Cc1ccc(CN2CCC(NC(=O)c3ccc(OC4CCN(c5ccc(C(F)(F)F)cc5)CC4)c(F)c3)CC2)cc1` [Compound 5-43, N-(1-(4-cyanobenzyl)piperidin-4-yl)-3-fluoro-4-(1-(4-(trifluoromethyl)phenyl)piperidin-4-yloxy)benzamide] showed a half-maximal effective concentration (EC50) below 1000 nM.

As to `O=C(NC1CCN(Cc2ccc(Cl)cc2)CC1)c1ccc(OC2CCN(Cc3ccc(Cl)cc3)CC2)c(F)c1` [Compound 5-72, N-(1-(4-chlorobenzyl)piperidin-4-yl)-4-(1-(4-chlorobenzyl)piperidin-4-yloxy)-3-fluorobenzamide], the EC50 was below 1000 nM.

`N#Cc1ccc(CN2CCC(NC(=O)c3cccc(OC4CCN(Cc5ccc(Oc6ccccc6)cc5)CC4)c3)CC2)cc1` [Compound 5-117, N-(1-(4-cyanobenzyl)piperidin-4-yl)-3-(1-(4-phenoxybenzyl)piperidin-4-yloxy)benzamide] showed an EC50 below 1000 nM.

On to `N#Cc1ccc(CN2CCC(Oc3cccc(C(=O)NC4CCN(Cc5ccccc5)CC4)c3)CC2)cc1` [Compound 5-50, N-(1-benzylpiperidin-4-yl)-3-(1-(4-cyanobenzyl)piperidin-4-yloxy)benzamide], for which the EC50 is 1000 to 10000 nM.

`CC(C)(C)OC(=O)N1CCN(C(=O)c2ccc(OC3CCN(Cc4ccccc4)CC3)cc2)CC1` [Compound 5-99, tert-butyl 4-(4-(1-benzylpiperidin-4-yloxy)benzoyl)piperazine-1-carboxylate]: the EC50 fell in the range of 1000 to 10000 nM.

As for `COC(=O)c1ccc(CN2CCC(NC(=O)c3ccc(OC4CCN(c5ccc(C(F)(F)F)cc5)CC4)c(F)c3)CC2)cc1` [Compound 5-33, methyl 4-((4-(3-fluoro-4-(1-(4-(trifluoromethyl)phenyl)piperidin-4-yloxy)benzamido)piperidin-1-yl)methyl)benzoate], the EC50 is below 1000 nM.

Take `O=C(NC1CCN(Cc2ccccc2)CC1)c1cccc(OC2CCN(c3ccncc3)CC2)c1` [Compound 5-53, N-(1-benzylpiperidin-4-yl)-3-(1-(pyridin-4-yl)piperidin-4-yloxy)benzamide]: the half-maximal effective concentration (EC50) is 10000 to 20000 nM.

For the compound `CC(C)(C)C(=O)N1CCC(NC(=O)c2ccc(OC3CCN(c4ccc(C(F)(F)F)cc4)CC3)c(F)c2)CC1` [Compound 5-30, 3-fluoro-N-(1-pivaloylpiperidin-4-yl)-4-(1-(4-(trifluoromethyl)phenyl)piperidin-4-yloxy)benzamide], the EC50 was below 1000 nM.

Consider `CC(C)(C)OC(=O)NCCCNC(=O)c1ccc(OC2CCN(Cc3ccc(C(F)(F)F)cc3)CC2)cc1` [Compound 5-95, tert-butyl 3-(4-(1-(4-(trifluoromethyl)benzyl)piperidin-4-yloxy)benzamido) propylcarbamate], for which the EC50 is below 1000 nM.

`O=C(NC1CCN(Cc2ccccc2)CC1)c1ccc(OC2CCN(c3ccco3)CC2)c(Cl)c1` [Compound 5-11, N-(1-benzylpiperidin-4-yl)-3-chloro-4-(1-(furan-2-yl)piperidin-4-yloxy)benzamide]: the EC50 was in the range of 1000 to 10000 nM.

Still in this assay, the particulars now being: Table 13, compounds of Table 6.
In turn, `CS(=O)(=O)c1ccc(OC2CCN(C(=O)c3ccc4oc(C(=O)NC5CCN(Cc6ccc(OC(F)(F)F)cc6)CC5)cc4c3)CC2)cc1` [Compound 6-135, 5-(4-(4-(methylsulfonyl)phenoxy)piperidine-1-carbonyl)-N-(1-(4-(trifluoromethoxy)benzyl)piperidin-4-yl)benzofuran-2-carboxamide] registered an EC50 below 100 nM.

`O=C(NC1CCN(Cc2ccc(OC(F)(F)F)cc2)CC1)c1cc2cc(C(=O)N3CCN(Cc4ccc(-n5cccn5)cc4)CC3)ccc2o1` [Compound 6-97, 5-(4-(4-(1H-pyrazol-1-yl)benzyl)piperazine-1-carbonyl)-N-(1-(4-(trifluoromcthoxy)benzyl)piperidin-4-yl)benzofuran-2-carboxamide] displayed an EC50 below 100 nM.

The compound `CS(=O)(=O)c1ccc(CN2CCN(C(=O)c3ccc4oc(C(=O)NC5CCN(Cc6ccc(OC(F)(F)F)cc6)CC5)cc4c3)CC2)cc1` [Compound 6-95, 5-(4-(4-(methylsulfonyl)benzyl)piperazine-1-carbonyl)-N-(1-(4-(trifluoromethoxy)benzyl)piperidin-4-yl)benzofuran-2-carboxamide] showed an EC50 of 100 to 1000 nM.

On to `N#Cc1ccc(CN2CCC(NC(=O)c3cc4cc(NC(=O)c5ccc(Oc6ccc(C#N)cn6)cc5)ccc4o3)CC2)cc1` [Compound 6-71, N-(1-(4-cyanobenzyl)piperidin-4-yl)-5-(4-(5-cyanopyridin-2-yloxy)benzamido)benzofuran-2-carboxamide], for which the EC50 fell in the range of 100 to 1000 nM.

Staying with this assay, now noted: Table 14, compounds of Table 7.
In turn, `N#Cc1ccc(CN2CCC(NC(=O)c3ccc(C(=O)N4CCC(Oc5ccc(S(=O)(=O)C6CC6)cc5)CC4)nc3)[C@H](F)C2)cc1` (stereo partly drawn) [Compound 7-73, N-((3,4-trans)-1-(4-cyanobenzyl)-3-fluoropiperidin-4-yl)-6-(4-(4-(cyclopropylsulfonyl)phenoxy)piperidine-1-carbonyl)nicotinamide] returned an EC50 of 1000 to 10000 nM.

Turning to `COc1ccc(C(=O)C2CCN(C(=O)c3ccc(C(=O)NC4CCN(Cc5ccc(OC)c(F)c5)C[C@@H]4C)cn3)CC2)cc1` (stereo partly drawn) [Compound 7-96, N-((3,4-cis)-1-(3-fluoro-4-methoxybenzyl)-3-methylpiperidin-4-yl)-6-(4-(4-methoxybenzoyl)piperidine-1-carbonyl)nicotinamide], the EC50 is below 1000 nM.

The compound `COc1ccc(C(=O)C2CCN(C(=O)c3ccc(C(=O)NC4CCN(Cc5ccc(C(F)(F)F)cc5)C[C@@H]4F)cn3)CC2)cc1` (stereo partly drawn) [Compound 7-28, N-((3,4-trans)-3-fluoro-1-(4-(trifluoromethyl)benzyl)piperidin-4-yl)-6-(4-(4-methoxybenzoyl)piperidine-1-carbonyl)nicotinamide] yielded an EC50 below 1000 nM.

`O=C(NC1CCN(Cc2ccc(N3CCCC3)cc2)CC1)c1ccc(C(=O)N2CCC(C(=O)c3ccc(N4CCCC4)cc3)CC2)nc1` [Compound 7-114, 6-(4-(4-(pyrrolidin-1-yl)benzoyl)piperidine-1-carbonyl)-N-(1-(4-(pyrrolidin-1-yl)benzyl)piperidin-4-yl)nicotinamide]: the EC50 was below 1000 nM.

On to `COc1ccc(CN2CCC(NC(=O)c3ccc(C(=O)N4CCC(Oc5ccc(C(=O)C6CC6)cc5)CC4)nc3)CC2)cc1` [Compound 7-120, 6-(4-(4-(cyclopropanecarbonyl)phenoxy)piperidine-1-carbonyl)-N-(1-(4-methoxybenzyl)piperidin-4-yl)nicotinamide], for which the EC50 was below 1000 nM.

Turning to `COc1ccc(C(=O)C2CCN(C(=O)c3ccc(C(=O)NC4CCN(Cc5cccc(C#N)c5)C[C@@H]4F)cn3)CC2)cc1` (stereo partly drawn) [Compound 7-27, N-((3,4-trans)-1-(3-cyanobenzyl)-3-fluoropiperidin-4-yl)-6-(4-(4-methoxybenzoyl)piperidine-1-carbonyl)nicotinamide], the EC50 was below 1000 nM.
